Test results taken from US20060079512A1, “Dibenzodiazepinone analogues, processes for their production and their use as pharmaceuticals” (Ecopia BioSciences, Inc., priority 2003, published 2006).
Read-outs that look alike come from different tables or passages of the source.

Experiments:
[1] = system: MDA-MB-231 (mammary gland adenocarcinoma); test: In vitro cytotoxic activity (GI50), method (a), propidium iodide; assay type: cell-based; conditions: Homo sapiens, MDA-MB-231; method (a), 96 hours; read-out: MDA-MB-231 (GI50 μM)
Procedure: (§1) Compounds were dissolved at 10 mM in DMSO. Dilution in vehicle to concentrations of 30, 10, 3, 1 and 0.3 μM were prepared immediately before assays. Depending on the cell line's growth characteristics, 4000-10000 cells were plated in two 96-wells pates (day 0) and incubated for 16 hours. The following day, propidium iodide was added to one of the two plates and fluorescence measured (Tz). Test compounds were added to the second plate, as well as vehicle control, and cells further incubated for 96 hours. Each compound was tested at each concentration and in triplicates. The equivalent cell number was determined after adding propidium iodide by measuring the signal by fluorescence (C for control).

SF268 (CNS) = test: as above; assay type: cell-based; conditions: Homo sapiens, SF-268; method (a), 96 hours; read-out: SF-268 (GI50 μM)
Procedure: as §1

[2] = system: HT-29 (colorectal carcinoma); test: as above; assay type: cell-based; conditions: Homo sapiens, HT-29; method (a), 96 hours; read-out: HT-29 (GI50 μM)
Procedure: as §1

[3] = system: PC-3 (prostate adenocarcinoma); test: as above; assay type: cell-based; conditions: method (a), 96 hours; read-out: PC-3 (GI50 μM)
Procedure: as §1

C6 glioblastoma = test: In vivo efficacy in glioma model, first series (treatment started 24 hrs after inoculation); set-up: species or system Mus musculus nude mice
Procedure: The aim of this study was to test whether Compound 1 administered by the i.p. route prevents or delays tumor growth in C6 glioblastoma cell-bearing mice, and to determine an effective dosage regimen.
Animal experiments were performed according to ethical guidelines of animal experimentation (Charte du comité d'éthique du CNRS, juillet 2003) and the English guidelines for the welfare of animals in experimental neoplasia (WORKMAN, P., […], P., BALKWILL, F., et al. (1998). United Kingdom Coordinating Committee on Cancer Research (UKCCCR) Guidelines for the welfare of animals in experimental neoplasia (Second Edition, July 1997; British Journal of Cancer, 77:1-10). Any dead or apparently sick mice were promptly removed and replaced with healthy mice. Sick mice were euthanized upon removal from the cage. Animals were maintained in rooms under controlled conditions of temperature (23±2° C.), humidity (45±5%), photoperiodicity (12 hrs light/12 hrs dark) and air exchange. Animals were housed in polycarbonate cages (5/single cage) that were equipped to provide food and water. Animal bedding consisted of sterile wood shavings that were replaced every other day. Food was provided ad libitum, being placed in the metal lid on the top of the cage. Autoclaved tap water was provided ad libitum. Water bottles were equipped with rubber stoppers and sipper tubes. Water bottles were cleaned, sterilized and replaced once a week. Two different numbers engraved on two earrings identified the animals. Each cage was labeled with a specific code.
Tumor Cell Line: The C6 cell line was cloned from a rat glial tumor induced by N-nitrosomethyurea (NMU) according to Premont et al. (Premont J, Benda P, Jard S., [3H] norepinephrine binding by rat glial cells in culture. Lack of correlation between binding and adenylate cyclase activation. Biochim Biophys Acta. 1975 Feb. 13;381(2):368-76.) after series of alternate culture and animal passages. Cells were grown as adherent monolayers at 37° C. in a humidified atmosphere (5% CO2, 95% air). The culture medium was DMEM supplemented with 2 mM L-glutamine and 10% fetal bovine serum. For experimental use, tumor cells were detached from the culture flask by a 10 min treatment with trypsin-versen. The cells were counted in a hemocytometer and their viability assessed by 0.25% trypan blue exclusion.
Preparation of the Test Article: For the test article, the following procedure was followed for reconstitution (performed immediately preceding injection). The vehicle consisted of a mixture of benzyl alcohol (1.5%), ethanol (8.5%), propylene glycol (27%), PEG 400 (27%), dimethylacetamide (6%) and water (30%). The vehicle solution was first vortexed in order to obtain a homogeneous liquid. 0.6 mL of the vortexed vehicle solution was added to each vial containing the test article (Compound 1). Vials were mixed thoroughly by vortexing for 1 minute and inverted and shaken vigorously. Vials were mixed again prior to injection into each animal.
Animal Inoculation with tumor cells: Experiment started at day 0 (D0). On D0, mice received a superficial intramuscular injection of C6 tumor cells (5×10^5 cells) in 0.1 mL of DMEM complete medium into the upper right posterior leg.
In a first series of experiments, treatment started 24 hrs following inoculation of C6 cells. On the day of the treatment, each mouse was slowly injected with 100 μL of test or control articles by the i.p. route. For all groups, treatment was performed until the tumor volume of the saline-treated mice (group 1) reached approximately 3 cm^3 (around day 16). Mice of group 1 were treated daily with a saline isosmotic solution for 16 days. Mice of group 2 were treated daily with the vehicle solution for 16 days. Mice of group 3 were treated daily with 10 mg/kg of Compound 1 for 16 days. Mice of group 4 were treated every two days with 30 mg/kg of Compound 1 and received 8 treatments. […]

[4] = system: rat glioblastoma tumor (C6) xenografts; test: Antitumor efficacy against rat glioblastoma tumor (C6) xenografts; assay type: in vivo, female swiss nude mice; conditions: intravenous, 75 mg/kg (qd5/2/qd5)
Text: Antitumor efficacy of Compound 2 against rat glioblastoma tumor (C6) xenografts in female swiss nude mice was accomplished as described above.

36 cancer cell lines = test: Anticancer activity profiling against 36 cell lines (IC50); assay type: cell-based
Procedure: as §1

CC(C)=CCC/C(C)=C/CC/C(C)=C/CN1C(=O)c2cccc(O)c2Nc2c(O)cc(O)cc21 [Compound 1, 10-farnesyl-4,6,8-trihydroxy-5,10-dihydrodibenzo[b,e][1,4]diazepin-11-one]
GI50 [1]: 1.79 µM | GI50 (SF268 (CNS)): 1.96 µM | GI50 [2]: 11.2 µM | GI50 [3]: 1.95 µM | Tumor volume (mm^3) (mean ± SEM) (C6 glioblastoma; 10 mg/kg i.p., Q1 × 16): 1,220.4 ± 283.46 mm^3 | % Inhibition (C6 glioblastoma; 10 mg/kg i.p., Q1 × 16, vs saline): 59.4% | Tumor volume (mm^3) (mean ± SEM) (C6 glioblastoma; 30 mg/kg i.p., Q2 × 8): 1,236.9 ± 233.99 mm^3 | % Inhibition (C6 glioblastoma; 30 mg/kg i.p., Q2 × 8, vs saline): 58.8% | Tumor volume (mm^3) (mean ± SEM) (C6 glioblastoma; 30 mg/kg i.p., Q3 × 6): 1,184.1 ± 221.45 mm^3 | % Inhibition (C6 glioblastoma; 30 mg/kg i.p., Q3 × 6, vs saline): 60.6% | mean value of the tumor volume of all treated groups (C6 glioblastoma; 10-30 mg/kg i.p., compared to the saline group): significantly reduced

CC(C)=CCC/C(C)=C/CC/C(C)=C/CN1C(=O)c2cccc(O)c2N(C)c2c(O)cc(O)cc21 [Compound 2, 10-farnesyl-4,6,8-trihydroxy-5-methyl-5,10-dihydro-dibenzo[b,e][1,4]diazepin-11-one]
Antitumor efficacy [4]: Significant efficacy | levels of IC50 values (36 cancer cell lines; 36 tumor types): low micromolar to nanomolar | IC50 (36 cancer cell lines; Bladder, cell line 1218L (Xenograft), urothelial adeno ca, read-out: IC50): 166 nM | IC50 (36 cancer cell lines; Bladder, cell line T24 (ATCC), transitional cell ca, read-out: IC50): 127 nM | IC50 (36 cancer cell lines; CNS, cell line SF268 (NCI), read-out: IC50): 10 nM | IC50 (36 cancer cell lines; Gastric, cell line 251L (Xenograft), adeno ca, pd, read-out: IC50): 105 nM | IC50 (36 cancer cell lines; Head & Neck, cell line 536L (Xenograft), hypopharynx ca, read-out: IC50): 181 nM | IC50 (36 cancer cell lines; Homo sapiens, 22Rv1, Prostate, cell line 22RV1 (ATCC), adeno ca, md, read-out: IC50): 142 nM | IC50 (36 cancer cell lines; Homo sapiens, CNS cell, CNS, cell line 498NL (Xenograft), glioblastoma, read-out: IC50): 176 nM | IC50 (36 cancer cell lines; Homo sapiens, DU-145, Prostate, cell line DU145 (NCI), adeno ca, md, read-out: IC50): 158 nM | IC50 (36 cancer cell lines; Homo sapiens, HCT-116, Colon, cell line HCT116 (NCI), adeno ca, pd, read-out: IC50): 156 nM | IC50 (36 cancer cell lines; Homo sapiens, HT-29, Colon, cell line HT29 (NCI), adeno ca, pd, read-out: IC50): 223 nM | IC50 (36 cancer cell lines; Homo sapiens, LNCaP, Prostate, cell line LNCAP (DSMZ), adeno ca, md, read-out: IC50): 485 nM | IC50 (36 cancer cell lines; Homo sapiens, MCF7, Mammary, cell line MCF7 (NCI), mamma ca, read-out: IC50): 276 nM | IC50 (36 cancer cell lines; Homo sapiens, NCI-H460, Lung, cell line H460 (NCI), large cell ca, read-out: IC50): 366 nM | IC50 (36 cancer cell lines; Homo sapiens, OVCAR-3, Ovarian, cell line OVCAR3 (NCI), adeno ca, md, read-out: IC50): 139 nM | IC50 (36 cancer cell lines; Homo sapiens, PANC-1, Pancreas, cell line PANC1 (ATCC), read-out: IC50): 125 nM | IC50 (36 cancer cell lines; Homo sapiens, PC-3M, Prostate, cell line PC3M (NCI), adeno ca, pd, read-out: IC50): 114 nM | IC50 (36 cancer cell lines; Lung, cell line 289L (Xenograft), adeno ca, read-out: IC50): 1550 nM | IC50 (36 cancer cell lines; Lung, cell line 526L (Xenograft), adeno ca, read-out: IC50): 104 nM | IC50 (36 cancer cell lines; Lung, cell line 529L (Xenograft), large cell ca, read-out: IC50): 127 nM | IC50 (36 cancer cell lines; Lung, cell line 629L (Xenograft), adeno ca, read-out: IC50): 164 nM | IC50 (36 cancer cell lines; Lung, cell line 1121L (Xenograft), large cell ca, read-out: IC50): 125 nM | IC50 (36 cancer cell lines; Mammary, cell line 401NL (Xenograft), pap adeno ca, wd, read-out: IC50): 194 nM | IC50 (36 cancer cell lines; Melanoma, cell line 276L (Xenograft), mm, amelanotic, read-out: IC50): 1950 nM | IC50 (36 cancer cell lines; Melanoma, cell line 394NL (Xenograft), mm, amelanotic, pd, read-out: IC50): 20 nM | IC50 (36 cancer cell lines; Melanoma, cell line 462NL (Xenograft), mm, amelanotic, read-out: IC50): 978 nM | IC50 (36 cancer cell lines; Melanoma, cell line 514L (Xenograft), mm, melanotic, read-out: IC50): 110 nM | IC50 (36 cancer cell lines; Melanoma, cell line 520L (Xenograft), mm, melanotic, read-out: IC50): 85 nM | IC50 (36 cancer cell lines; Ovarian, cell line 899L (Xenograft), pap serous ca, md, read-out: IC50): 238 nM | IC50 (36 cancer cell lines; Ovarian, cell line 1619L (Xenograft), adeno ca, md, read-out: IC50): 579 nM | IC50 (36 cancer cell lines; Pancreas, cell line 1657L (Xenograft), adeno ca, md, read-out: IC50): 1780 nM | IC50 (36 cancer cell lines; Pleuramesot., cell line 1752L (Xenograft), pleuromesothelioma, read-out: IC50): 1500 nM | IC50 (36 cancer cell lines; Renal, cell line 393NL (Xenograft), hypernephroma, wd, read-out: IC50): 527 nM | IC50 (36 cancer cell lines; Renal, cell line 486L (Xenograft), hypernephroma, pd, read-out: IC50): 1140 nM | IC50 (36 cancer cell lines; Renal, cell line 944L (Xenograft), hypernephroma, read-out: IC50): 230 nM | IC50 (36 cancer cell lines; Renal, cell line 1781L (Xenograft), renal ca, read-out: IC50): 172 nM | IC50 (36 cancer cell lines; Uterus, cell line 1138L (Xenograft), carcinosarcoma, wd, read-out: IC50): 139 nM | IC50 (36 cancer cell lines; mean of all 36 cell lines, read-out: IC50, Mean of all cell lines): 407 nM
